Among the data in PubChem BioAssay AID288 (DTP/NCI, 2004) are T/C values, retold here.

Values joined by “and” are separate entries in the source; they are usually repeats but may differ in a detail not shown here. Equal values may be shown once. Records with an inconclusive call do not appear.

In this experiment the test system is BDF1 mice, M5076 sarcoma s.c., survival/tumor T/C. Put plainly: NCI In Vivo Anticancer Drug Screen. Data for tumor model Sarcoma M5076 (subcutaneous) in B6D2F1 (BDF1) mice. The method, then:
The antitumor activity of compounds was measured in mice bearing transplantable tumors. Survival or tumor size were measured and the results are expressed as the measurement made in the treated group (T) divided by the measurement made in the vehicle treated control group (C). The tumor model used in this assay is Sarcoma M5076 (subcutaneous) in B6D2F1 (BDF1) mice

Setting [1] is: endpoint: median survival time, dose: 50.0 mg/kg/injection, schedule: Q01DX009 (ip), vehicle: saline with Tween-80, higher = longer survival.
[2] abbreviates: endpoint: median survival time, dose: 100.0 mg/kg/injection, schedule: Q01DX009 (ip), vehicle: saline with Tween-80, higher = longer survival.
[3] abbreviates: endpoint: median survival time, dose: 200.0 mg/kg/injection, schedule: Q01DX009 (ip), vehicle: saline with Tween-80, higher = longer survival.

Regarding `CN(C)/N=N/c1nc[nH]c1C(N)=O`, the T/C is, setting by setting: (endpoint: median survival time, dose: 13.5 mg/kg/injection, schedule: Q04DX006 (ip), vehicle: saline with Tween-80, higher = longer survival) 96 % of control; (endpoint: median survival time, dose: 27.0 mg/kg/injection, schedule: Q02DX030 (ip), vehicle: saline with Tween-80, higher = longer survival) 177 % of control; (endpoint: median survival time, dose: 27.0 mg/kg/injection, schedule: Q04DX006 (ip), vehicle: saline with Tween-80, higher = longer survival) 122 % of control; (endpoint: median survival time, dose: 54.0 mg/kg/injection, schedule: Q02DX030 (ip), vehicle: saline with Tween-80, higher = longer survival) 191 % of control.

With `CN1C(=O)CN2CCc3ccccc3C2c2cc(Cl)ccc21` (stereo not drawn), the T/C under setting [1] was 99 % of control, the T/C under setting [2] was 102 % of control and the T/C under setting [3] was 105 % of control.

As to `O=CC(NC(=O)N(CCCl)N=O)C(O)C(O)C(O)CO` (stereo not drawn), the T/C was 100 % of control (endpoint: mean tumor weight, dose: 0.75 mg/kg/injection, schedule: Q02DX011 (ip), vehicle: saline, higher = larger tumour); 33 % of control (endpoint: mean tumor weight, dose: 1.5 mg/kg/injection, schedule: Q02DX011 (ip), vehicle: saline, higher = larger tumour); 6 % of control (endpoint: mean tumor weight, dose: 3.0 mg/kg/injection, schedule: Q02DX011 (ip), vehicle: saline, higher = larger tumour); 182 % of control (endpoint: median survival time, dose: 4.32 mg/kg/injection, schedule: Q04DX003 (ip), vehicle: saline, higher = longer survival); 152 % of control and 153 % of control (endpoint: median survival time, dose: 6.17 mg/kg/injection, schedule: Q04DX003 (ip), vehicle: saline, higher = longer survival); 109 % of control (endpoint: median survival time, dose: 6.86 mg/kg/injection, schedule: Q01DX001 (ip), vehicle: saline, higher = longer survival). The T/C is 179 % of control and 181 % of control (endpoint: median survival time, dose: 8.82 mg/kg/injection, schedule: Q04DX003 (ip), vehicle: saline, higher = longer survival); 111 % of control and 113 % of control (endpoint: median survival time, dose: 9.8 mg/kg/injection, schedule: Q01DX001 (ip), vehicle: saline, higher = longer survival); 186 % of control and 188 % of control (endpoint: median survival time, dose: 12.6 mg/kg/injection, schedule: Q04DX003 (ip), vehicle: saline, higher = longer survival); 205 % of control (endpoint: median survival time, dose: 18.0 mg/kg/injection, schedule: Q04DX003 (ip), vehicle: saline, higher = longer survival); 155 % of control and 156 % of control (endpoint: median survival time, dose: 20.0 mg/kg/injection, schedule: Q01DX001 (ip), vehicle: saline, higher = longer survival); 118 % of control (endpoint: median tumor weight (est.), dose: 0.75 mg/kg/injection, schedule: Q02DX011 (ip), vehicle: saline, higher = larger tumour). The T/C is, setting by setting: (endpoint: median tumor weight (est.), dose: 1.5 mg/kg/injection, schedule: Q02DX011 (ip), vehicle: saline, higher = larger tumour) 5 % of control; (endpoint: median tumor weight (est.), dose: 3.0 mg/kg/injection, schedule: Q02DX011 (ip), vehicle: saline, higher = larger tumour) 4 % of control.

On to `CC1(C)OC(C)(C)c2c1nnc(-c1cccc([N+](=O)[O-])c1)[n+]2[O-]`, for which the T/C is 110 % of control under setting [1]; 113 % of control under setting [2]; 113 % of control under setting [3]; 91 % of control (endpoint: median tumor weight (est.), dose: 50.0 mg/kg/injection, schedule: Q01DX009 (ip), vehicle: saline with Tween-80, higher = larger tumour); 119 % of control (endpoint: median tumor weight (est.), dose: 100.0 mg/kg/injection, schedule: Q01DX009 (ip), vehicle: saline with Tween-80, higher = larger tumour); 97 % of control (endpoint: median tumor weight (est.), dose: 200.0 mg/kg/injection, schedule: Q01DX009 (ip), vehicle: saline with Tween-80, higher = larger tumour).

Regarding `C[C@@H](CN1CC(=O)NC(=O)C1)N1CC(=O)NC(=O)C1`, the T/C is 119 % of control (endpoint: median survival time, dose: 32.0 mg/kg/injection, schedule: Q01DX009 (ip), vehicle: saline with Tween-80, higher = longer survival); 108 % of control and 111 % of control (endpoint: median survival time, dose: 64.0 mg/kg/injection, schedule: Q01DX009 (ip), vehicle: saline with Tween-80, higher = longer survival); 115 % of control and 119 % of control (endpoint: median survival time, dose: 128.0 mg/kg/injection, schedule: Q01DX009 (ip), vehicle: saline with Tween-80, higher = longer survival); 68 % of control (endpoint: median tumor weight (est.), dose: 32.0 mg/kg/injection, schedule: Q01DX009 (ip), vehicle: saline with Tween-80, higher = larger tumour); 36 % of control and 58 % of control (endpoint: median tumor weight (est.), dose: 64.0 mg/kg/injection, schedule: Q01DX009 (ip), vehicle: saline with Tween-80, higher = larger tumour); 18 % of control and 37 % of control (endpoint: median tumor weight (est.), dose: 128.0 mg/kg/injection, schedule: Q01DX009 (ip), vehicle: saline with Tween-80, higher = larger tumour). Moreover, the T/C (endpoint: median tumor weight (est.), dose: 256.0 mg/kg/injection, schedule: Q01DX009 (ip), vehicle: saline with Tween-80, higher = larger tumour) was 14 % of control.

With `O=c1[nH]c(=O)n(C2CC(O)C(CO)O2)cc1F` (stereo not drawn), the T/C reads like this: (endpoint: mean tumor weight, dose: 20.0 mg/kg/injection, schedule: Q02DX011 (ip), vehicle: Klucel (hydroxypropylcellulose) (HPC), higher = larger tumour) 66 % of control; (endpoint: mean tumor weight, dose: 40.0 mg/kg/injection, schedule: Q02DX011 (ip), vehicle: Klucel (hydroxypropylcellulose) (HPC), higher = larger tumour) 49 % of control; (endpoint: mean tumor weight, dose: 80.0 mg/kg/injection, schedule: Q02DX011 (ip), vehicle: Klucel (hydroxypropylcellulose) (HPC), higher = larger tumour) 13 % of control; (endpoint: median tumor weight (est.), dose: 20.0 mg/kg/injection, schedule: Q02DX011 (ip), vehicle: Klucel (hydroxypropylcellulose) (HPC), higher = larger tumour) 62 % of control; (endpoint: median tumor weight (est.), dose: 40.0 mg/kg/injection, schedule: Q02DX011 (ip), vehicle: Klucel (hydroxypropylcellulose) (HPC), higher = larger tumour) 46 % of control and 70 % of control; (endpoint: median tumor weight (est.), dose: 160.0 mg/kg/injection, schedule: Q02DX011 (ip), vehicle: Klucel (hydroxypropylcellulose) (HPC), higher = larger tumour) 23 % of control.

In the case of `CCOC(=O)CCC1(C(=O)OC)C(=O)CCCCCCCC1C(=O)OC` (stereo not drawn), the T/C was 100 % of control under setting [1], 100 % of control under setting [2] and 115 % of control under setting [3].

Consider `CO[C@@]12[C@H](COC(N)=O)C3=C(C(=O)C(C)=C(N)C3=O)N1C[C@@H]1N[C@@H]12`, for which the T/C runs as follows: (endpoint: median survival time, dose: 0.38 mg/kg/injection, schedule: Q04DX006 (ip), vehicle: saline, higher = longer survival) 105 % of control; (endpoint: median survival time, dose: 0.75 mg/kg/injection, schedule: Q02DX033 (ip), vehicle: saline, higher = longer survival) 154 % of control; (endpoint: median survival time, dose: 0.75 mg/kg/injection, schedule: Q04DX006 (ip), vehicle: saline, higher = longer survival) 103 % of control; (endpoint: median survival time, dose: 1.5 mg/kg/injection, schedule: Q02DX033 (ip), vehicle: saline, higher = longer survival) 92 % of control; (endpoint: median survival time, dose: 3.0 mg/kg/injection, schedule: Q04DX006 (ip), vehicle: saline, higher = longer survival) 101 % of control.

For `COc1cccc2c1C(=O)c1c(O)c3c(c(O)c1C2=O)C[C@@](O)(C(C)=O)C[C@@H]3OC1CC(N)C(O)C(C)O1` (stereo partly drawn), the T/C was 95 % of control (endpoint: median survival time, dose: 0.4 mg/kg/injection, schedule: Q02DX030 (ip), vehicle: saline, higher = longer survival); 106 % of control (endpoint: median survival time, dose: 0.4 mg/kg/injection, schedule: Q04DX006 (ip), vehicle: saline, higher = longer survival); 122 % of control (endpoint: median survival time, dose: 0.8 mg/kg/injection, schedule: Q02DX030 (ip), vehicle: saline, higher = longer survival); 104 % of control (endpoint: median survival time, dose: 1.6 mg/kg/injection, schedule: Q02DX030 (ip), vehicle: saline, higher = longer survival).

Turning to `O=C(O)C1(C(=O)O)CCC1.[NH2-].[NH2-].[Pt+2]`, the T/C reads like this: (endpoint: median survival time, dose: 6.25 mg/kg/injection, schedule: Q02DX030 (ip), vehicle: water, higher = longer survival) 98 % of control; (endpoint: median survival time, dose: 17.0 mg/kg/injection, schedule: Q01DX009 (ip), vehicle: other, higher = longer survival) 100 % of control; (endpoint: median survival time, dose: 25.0 mg/kg/injection, schedule: Q01DX009 (ip), vehicle: other, higher = longer survival) 114 % of control; (endpoint: median survival time, dose: 25.0 mg/kg/injection, schedule: Q02DX030 (ip), vehicle: water, higher = longer survival) 165 % of control; (endpoint: median survival time, dose: 25.92 mg/kg/injection, schedule: Q04DX005 (ip), vehicle: water, higher = longer survival) 162 % of control; (endpoint: median survival time, dose: 38.0 mg/kg/injection, schedule: Q01DX009 (ip), vehicle: other, higher = longer survival) 107 % of control. In addition, the T/C was 169 % of control (endpoint: median survival time, dose: 43.2 mg/kg/injection, schedule: Q04DX005 (ip), vehicle: water, higher = longer survival); 94 % of control (endpoint: median survival time, dose: 50.0 mg/kg/injection, schedule: Q02DX030 (ip), vehicle: water, higher = longer survival); 196 % of control (endpoint: median survival time, dose: 72.0 mg/kg/injection, schedule: Q04DX005 (ip), vehicle: water, higher = longer survival); 22 % of control (endpoint: median tumor weight (est.), dose: 15.6 mg/kg/injection, schedule: Q04DX005 (ip), vehicle: water, higher = larger tumour); 20 % of control (endpoint: median tumor weight (est.), dose: 25.92 mg/kg/injection, schedule: Q04DX005 (ip), vehicle: water, higher = larger tumour).

On to `CS(=O)(=O)OCCCCOS(C)(=O)=O`, for which, where the note is “endpoint: mean tumor weight, dose: 15.0 mg/kg/injection, schedule: Q02DX011 (ip), vehicle: Klucel (hydroxypropylcellulose) (HPC), higher = larger tumour”, the T/C was 56 % of control.

Turning to `CC(=O)[C@H]1CC[C@H]2[C@@H]3C[C@H](C)C4=CC(=O)CC[C@]4(C)[C@H]3C(=O)C[C@]12C`, the T/C reads like this: (endpoint: mean tumor weight, dose: 100.0 mg/kg/injection, schedule: Q02DX011 (ip), vehicle: Klucel (hydroxypropylcellulose) (HPC), higher = larger tumour) 51 % of control; (endpoint: mean tumor weight, dose: 200.0 mg/kg/injection, schedule: Q02DX011 (ip), vehicle: Klucel (hydroxypropylcellulose) (HPC), higher = larger tumour) 74 % of control.

For `O=[N+]([O-])c1nccn1CC(O)CO` (stereo not drawn), the T/C (endpoint: median survival time, dose: 1776.0 mg/kg/injection, schedule: Q01DX001 (ip), vehicle: saline, higher = longer survival) was 101 % of control and 102 % of control; the T/C (endpoint: median survival time, dose: 2500.0 mg/kg/injection, schedule: Q01DX001 (ip), vehicle: saline, higher = longer survival) is 102 % of control (2×) and 92 % of control.
